From publication PMC5749684, “Tetrahydrocarbazoles are a novel class of potent P-type ATPase inhibitors with antifungal activity” (PLoS ONE, 2018)
In brackets after ≈: the same amount, converted by molar mass.

What was measured:
HepG2 cells = test: Hep G2 viability assay (XTT); type: cell-based, human; conditions: for EC50: Homo sapiens, HepG2 proliferation, 72 h, XTT; for Fungal growth inhibition versus HepG2 proliferation (in words): comparison of MIC and HepG2 EC50
Method: In each well of a 96 well tissue culture plate (Greiner, catalog number GR-655180) 10,000 human hepatocyte HepG2 cells (Sigma-Aldrich, catalog number 85011430) were plated in 200 μL growth media (EMEM (Sigma-Aldrich, catalog number M2279), 2 mM L-Glutamine (Biological Industries, catalog number 03-020-1B), 1% non-essential amino acids (Biosera, catalog number XC-E1154/100), 10% fetal bovine serum (Biological Industries, catalog number BI-04-007-1A)), and incubated overnight at 37°C and 5% CO2. The following day, fresh growth media plus 2 μL compound in DMSO was added. The plate was incubated for a further 72 h at 37°C and 5% CO2. The media was replaced with 100 μL freshly prepared 0.5 mg/mL XTT sodium salt solution (Sigma-Aldrich, catalog number X4251) in RPMI-1640 (Sigma-Aldrich, catalog number R7509) with 3.83 μg/mL phenazine methosulfate (Sigma-Aldrich, catalog number P9625) and incubated 2–3 h at 37°C and 5% CO2. The color reaction was measured on a Victor X5 plate reader (Perkin-Elmer) at OD450, and the half maximal effective concentration (EC50) was calculated indicating the potency of tetrahydrocarbazole derivatives to inhibit HepG2 cell growth. Tamoxifen (Sigma-Aldrich, catalog number 85256) was used as a positive control compound while DMSO served as a negative control.

[1] = target: T1, Mammalian Na^+,K^+-ATPase (Sus scrofa, UniProt P05024); test: ATP hydrolysis inhibition, Na+,K+-ATPase; type: biochemical; conditions: pig Na+,K+-ATPase, racemic compounds, n = 3
T1 construct: The pig kidney Na^+,K^+-ATPase purification included a mild SDS treatment of isolated microsomes; from tissue; host or cells: pig kidney microsomes, SDS-treated
From the text: (§1) All membrane batches were validated by determining ATPase activity, pH optimum and orthovanadate sensitivity. Sarco/endoplasmatic reticulum (SR) Ca^2+ ATPase was provided in SR membranes purified by extraction with a low concentration of deoxycholate (DOC) and was kindly provided by Claus E. Olesen and Jesper V. Møller, Aarhus University and prepared as described in [43]. The pig kidney Na^+,K^+-ATPase purification included a mild SDS treatment of isolated microsomes followed by a washing step and was kindly provided by Natalya Fedosova, Aarhus University and prepared as described in [44].
(§2) ATPase activity was determined by measuring the amount of liberated phosphate from ATP hydrolysis. The ATPase assay was performed in 96 well plates in a final reaction volume of 60 μL. 0.1–0.2 μg/well of DOC extracted SERCA membrane or the Na^+,K^+-ATPase was used, while 1–2.5 μg/well was used of the Pma1 membrane preparation. Reactions, including protein membrane preparation and various concentrations of exogenously added compounds, were conducted in the following buffers; Pma1 buffer: 17.5 mM MOPS-NaOH pH 7, 7 mM MgSO4, 44 mM KNO3 (vacuolar ATPase inhibitor), 22 mM NaN3 (mitochondrial ATPase inhibitor), 0.22 mM Na2MoO4 (acid phosphatase inhibitor); SERCA buffer: 9 mM MOPS-NaOH pH 7, 2.7 mM MgCl2, 0.1 mM CaCl2 and 72 mM KCl. Na^+,K^+-ATPase buffer: 30 mM MOPS-NaOH pH 7, 40 mM NaCl, 4 mM MgCl2 and 20 mM KCl. Reactions were initiated by the addition of Na-ATP to a final concentration of 2.5 mM (Pma1 and Na^+,K^+-ATPase) or 5 mM (SERCA), followed by 30 minutes incubation at 30°C. […] Absorption was measured at 860 nm after additional 30 minutes incubation at RT.

[2] = system: Saccharomyces cerevisiae ATCC 9763; test: Fungal growth inhibition, S. cerevisiae ATCC 9763; type: cell-based; conditions: ATCC9763, MIC defined as 50% growth inhibition, 24 h, n = 3–6
From the text: (§3) Fungal isolates were purchased from American Type Culture Collection, except for C. glabrata strain Cg003, which was kindly provided by Julius Subik, Comenius University in Bratislava, Slovak Republic. Cg003 is a clinical isolate, characterized to be resistant to fluconazole and itraconazole due to overexpression of the multidrug resistance efflux pumps Cdr1p and Cdr2p. Saccharomyces cerevisiae (ATCC 9763), Candida albicans (ATCC 90028), Candida albicans (SC5314), Candida glabrata (ATCC 90030), Candida glabrata (Cg003) and Candida krusei (ATCC 6258) were grown in Sabouraud broth (40 g/L D-glucose, 10 g/L peptone, pH 5.6) or YPD (10 g/L yeast extract, 20 g/L Bacto-peptone, 20 g/L glucose) medium to mid log phase, aliquoted into 20% (v/v) glycerol and cryopreserved as stocks at -80°C. For each growth assay, cells from these stocks were diluted in sterile water to OD600 = 0.025, which corresponds to a final starting inoculum of 0.5–2.5 x 10^5 CFU/mL. Growth assays were carried out by pipetting 3 μL compound dissolved in DMSO, 100 μL cell suspension and 97 μL 2 x RPMI media (20.8 g/L RPMI-1640 (Sigma-Aldrich catalog number R6504) 330 mM MOPS, 36 g/L glucose) into a microtiter plate and incubating for 24 h at 34°C, followed by OD measurement at 490 nm. The minimum inhibitory concentration (MIC) was defined as 50% growth inhibition of the microorganism as this measurement best represented the antifungal activity of the compounds. Standard errors were typically below 5%.

Candida krusei ATCC 6258 = test: Fungal growth inhibition, C. krusei; type: cell-based; conditions: Pichia kudriavzevii, ATCC6258; MIC defined as 50% growth inhibition, 24 h, n = 3–6
From the text: as §3

Mammalian SERCA = target: T2, Mammalian SERCA (Oryctolagus cuniculus, UniProt P04191); test: ATP hydrolysis inhibition, SERCA; type: biochemical; conditions: rabbit SERCA, racemic compounds, n = 3
T2 construct: Ca^2+ ATPase was provided in SR membranes purified by extraction with a low concentration of deoxycholate (DOC); from tissue; host or cells: sarcoplasmic reticulum membranes (rabbit)
T2 sequence (P04191 1-994 isoform P04191-2): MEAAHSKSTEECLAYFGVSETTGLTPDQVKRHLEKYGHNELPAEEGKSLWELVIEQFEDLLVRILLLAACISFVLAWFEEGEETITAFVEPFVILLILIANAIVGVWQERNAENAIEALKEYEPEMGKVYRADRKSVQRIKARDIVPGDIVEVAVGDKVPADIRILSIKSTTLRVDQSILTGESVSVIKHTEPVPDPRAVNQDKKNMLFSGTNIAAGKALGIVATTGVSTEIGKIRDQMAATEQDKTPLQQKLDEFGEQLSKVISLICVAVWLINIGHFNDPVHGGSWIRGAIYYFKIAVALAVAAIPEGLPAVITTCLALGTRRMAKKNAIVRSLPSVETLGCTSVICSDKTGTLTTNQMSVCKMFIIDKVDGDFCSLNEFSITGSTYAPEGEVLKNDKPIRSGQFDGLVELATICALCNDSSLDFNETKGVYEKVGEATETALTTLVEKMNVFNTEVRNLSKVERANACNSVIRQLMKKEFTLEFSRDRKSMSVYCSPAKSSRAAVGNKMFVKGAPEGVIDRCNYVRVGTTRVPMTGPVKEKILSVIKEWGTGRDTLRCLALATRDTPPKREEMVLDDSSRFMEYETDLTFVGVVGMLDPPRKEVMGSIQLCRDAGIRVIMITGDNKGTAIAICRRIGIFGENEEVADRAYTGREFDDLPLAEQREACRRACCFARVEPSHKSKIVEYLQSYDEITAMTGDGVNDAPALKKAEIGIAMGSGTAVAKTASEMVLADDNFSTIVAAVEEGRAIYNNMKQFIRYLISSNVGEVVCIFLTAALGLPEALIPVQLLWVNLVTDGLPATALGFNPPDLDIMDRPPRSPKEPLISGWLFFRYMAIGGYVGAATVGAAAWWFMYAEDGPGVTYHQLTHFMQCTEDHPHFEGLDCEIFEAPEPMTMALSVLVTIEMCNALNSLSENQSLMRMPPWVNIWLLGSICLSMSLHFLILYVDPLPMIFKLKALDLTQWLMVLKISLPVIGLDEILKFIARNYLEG
From the text: as §1, §2

Compound	EC50 (HepG2 cells)	Fungal growth inhibition versus HepG2 proliferation (in words) (HepG2 cells)	IC50 [1]	MIC [2]	MIC (Candida krusei ATCC 6258)	IC50 (Mammalian SERCA)
NC1CCCc2c1[nH]c1cc(OC(F)(F)F)ccc21 (stereo not drawn) [Compound 4]	3.5 ± 1.87 µM	more potent at inhibiting HepG2 proliferation than fungal growth	37.2 ± 13.6 µM	7.5 µM (≈ 2.03 µg/mL)	66 ± 16 µM (≈ 17.8 µg/mL)	1.55 ± 0.06 µM
CN1CCC(NC2CCCc3c2[nH]c2cc(OC(F)(F)F)ccc32)CC1 (stereo not drawn) [Compound 5]	4.7 ± 3.4 µM	more potent at inhibiting HepG2 proliferation than fungal growth	132 ± 35.2 µM	11.6 ± 8.1 µM (≈ 4.26 µg/mL)	150 µM (≈ 55.1 µg/mL)	61.7 ± 18.8 µM
FC(F)(F)Oc1ccc2c3c([nH]c2c1)C(NCc1ccc(Cl)cc1)CCC3 (stereo not drawn) [Compound 6]	16.7 ± 3.54 µM	inhibited fungal growth more strongly than HepG2 proliferation	0.72 ± 0.3 µM	5 ± 2.9 µM (≈ 1.97 µg/mL)	7.5 µM (≈ 2.96 µg/mL)	0.09 ± 0.03 µM
FC(F)(F)Oc1ccc2c3c([nH]c2c1)C(NCc1ccc(Br)cc1)CCC3 (stereo not drawn) [Compound 7]	14.9 ± 0.26 µM		0.38 ± 0.12 µM	1.5 µM (≈ 0.659 µg/mL)	4.7 µM (≈ 2.06 µg/mL)	0.11 ± 0.06 µM
FC(F)(F)Oc1ccc2c3c([nH]c2c1)C(NCCOc1ccc(Cl)cc1)CCC3 (stereo not drawn) [Compound 8]	13.6 ± 1.33 µM	inhibited fungal growth more strongly than HepG2 proliferation	1.07 ± 0.38 µM	6.2 ± 2.6 µM (≈ 2.63 µg/mL)	12.9 ± 9.4 µM (≈ 5.48 µg/mL)	0.26 ± 0.06 µM
FC(F)(F)Oc1ccc2[nH]c3c(c2c1)CCCC3NCc1ccc(-c2ccccn2)cc1 (stereo not drawn) [Compound 9]	12.5 ± 3.68 µM	inhibited fungal growth more strongly than HepG2 proliferation	9.76 ± 4.47 µM	7.5 µM (≈ 3.28 µg/mL)	7.5 ± 4.8 µM (≈ 3.28 µg/mL)	3.27 ± 1.89 µM
Clc1ccc2[nH]c3c(c2c1)CCCC3NCc1ccc(-c2ccccc2)cc1 (stereo not drawn) [Compound 10]	18.6 ± 1.12 µM	inhibited fungal growth more strongly than HepG2 proliferation	5.5 ± 2.74 µM	7.5 µM (≈ 2.9 µg/mL)	6.8 ± 4.6 µM (≈ 2.63 µg/mL)	5.54 ± 3.16 µM
Cn1c2c(c3cc(Cl)ccc31)CCCC2NCc1ccc(-c2ccccc2)cc1 (stereo not drawn) [Compound 11]	> 20 µM		> 20 µM	> 20 µM	> 20 µM	> 20 µM
CN(Cc1ccc(-c2ccccc2)cc1)C1CCCc2c1[nH]c1ccc(Cl)cc21 (stereo not drawn) [Compound 12]	> 20 µM		11.8 ± 6.8 µM	> 20 µM	> 20 µM	> 20 µM
